In ChEMBL document CHEMBL1201862, “PubChem BioAssay data set” (2004):
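Growth conditions: 96-well plates. Treatment: test compound, 48 hours, 5 concentrations. Analysis: linear interpolation between bracketing concentrations; unreached endpoints set to highest concentration. Abbreviation: GI50, concentration required for 50% inhibition of growth.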 The source made the active and inactive calls. Rule as the data show it: active = GI50 up to about 1.1 µM and inactive = higher.

What was measured:
Experiment in all cases: NCI tumour cell line growth inhibition, 48 h
COLO 205 = system: COLO 205
DU-145 = system: DU-145
HCT-116 = system: HCT-116
HT-29 = system: HT-29
K562 = system: K562
LOX IMVI = system: LOX IMVI
M14 = system: M14
NCI-H226 = system: NCI-H226
OVCAR-3 = system: OVCAR-3
PC-3 = system: PC-3
RPMI-8226 = system: RPMI-8226
RXF 393 = system: RXF 393
SF-268 = system: SF-268
SK-MEL-28 = system: SK-MEL-28
SN12C = system: SN12C
SW-620 = system: SW-620
TK-10 = system: TK-10
U-251 = system: U-251
UO-31 = system: UO-31
SR = system: SR

Measured: GI50

Cc1cc2c(cc1Cl)SC(NNc1ccc([N+](=O)[O-])cc1)=NS2(=O)=O
inactive: COLO 205 > 10 µM | DU-145 > 10 µM | HCT-116 > 10 µM | HT-29 > 10 µM | K562 > 10 µM | LOX IMVI > 10 µM | M14 > 10 µM | NCI-H226 > 10 µM | OVCAR-3 > 10 µM | PC-3 > 10 µM | RPMI-8226 > 10 µM | RXF 393 > 10 µM | SF-268 > 10 µM | SK-MEL-28 > 10 µM | SN12C > 10 µM | SW-620 > 10 µM | TK-10 > 10 µM | U-251 > 10 µM | UO-31 > 10 µM

Nc1ncnc2c1ccn2CC#CCO
inactive: COLO 205 > 100 µM | DU-145 > 100 µM | HCT-116 > 100 µM | HT-29 > 100 µM | K562 > 100 µM | LOX IMVI > 100 µM | M14 > 100 µM | OVCAR-3 > 100 µM | PC-3 > 100 µM | RPMI-8226 > 100 µM | RXF 393 97.3 µM | SF-268 > 100 µM | SK-MEL-28 > 100 µM | SN12C > 100 µM | SW-620 > 100 µM | TK-10 > 100 µM | U-251 > 100 µM | UO-31 > 100 µM

O=C1c2cc3c(cc2CC12Cc1cc4c(cc1C2=O)CCC4)CCCC3 (stereo not given)
inactive: DU-145 > 100 µM | HCT-116 > 100 µM | HT-29 > 100 µM | K562 > 100 µM | LOX IMVI > 100 µM | M14 > 100 µM | OVCAR-3 > 100 µM | PC-3 > 100 µM | RPMI-8226 > 100 µM | RXF 393 > 100 µM | SF-268 > 100 µM | SK-MEL-28 > 100 µM | SR > 100 µM | SW-620 > 100 µM | TK-10 > 100 µM | U-251 89.1 µM | UO-31 > 100 µM

COC1=C(OC)CCC(/C(C#N)=C/c2ccc(OC)c(OC)c2)=C1
inactive: COLO 205 95.3 µM | HCT-116 > 100 µM | HT-29 80.9 µM | K562 48.3 µM | LOX IMVI > 100 µM | M14 > 100 µM | NCI-H226 > 100 µM | OVCAR-3 > 100 µM | RPMI-8226 > 100 µM | RXF 393 36.7 µM | SF-268 37.2 µM | SK-MEL-28 > 100 µM | SN12C > 100 µM | SR 66.7 µM | SW-620 > 100 µM | TK-10 34.2 µM | U-251 34.5 µM | UO-31 36.1 µM

O=C(CC(C(=O)c1cccs1)c1ccsc1)c1ccccc1 (stereo not given)
inactive: COLO 205 > 100 µM | DU-145 > 100 µM | HCT-116 38.3 µM | HT-29 > 100 µM | LOX IMVI > 100 µM | M14 34.9 µM | NCI-H226 > 100 µM | OVCAR-3 > 100 µM | RPMI-8226 48.8 µM | RXF 393 61 µM | SF-268 > 100 µM | SK-MEL-28 > 100 µM | SN12C > 100 µM | SR 66.1 µM | SW-620 > 100 µM | TK-10 > 100 µM | U-251 > 100 µM | UO-31 37.8 µM

CC1=C(C)C1[N+](=O)[O-]
inactive: COLO 205 > 100 µM | DU-145 > 100 µM | HCT-116 > 100 µM | HT-29 > 100 µM | K562 > 100 µM | LOX IMVI > 100 µM | M14 > 100 µM | NCI-H226 > 100 µM | OVCAR-3 > 100 µM | PC-3 > 100 µM | RPMI-8226 > 100 µM | RXF 393 > 100 µM | SF-268 > 100 µM | SK-MEL-28 > 100 µM | SN12C > 100 µM | SW-620 > 100 µM | TK-10 > 100 µM | U-251 > 100 µM | UO-31 > 100 µM

CN(C(=S)Cc1ccc(Cl)c(Cl)c1)C1CCCC[C@@H]1N1CCCC1 (stereo not given in full)
inactive: DU-145 > 100 µM | HCT-116 48.1 µM | HT-29 16.7 µM | K562 61 µM | M14 18.2 µM | NCI-H226 46.6 µM | OVCAR-3 26.1 µM | PC-3 31.4 µM | RPMI-8226 31.8 µM | SK-MEL-28 16.7 µM | SN12C 63.7 µM | SW-620 20.1 µM | TK-10 27.9 µM | U-251 29.9 µM | UO-31 19.6 µM

CCCCCCCCCCCCCC1CCC(CC)N1 (stereo not given)
inactive: COLO 205 15.1 µM | HCT-116 15.6 µM | HT-29 5.81 µM | K562 14.8 µM | LOX IMVI 17.5 µM | M14 17.9 µM | NCI-H226 15.3 µM | OVCAR-3 16.2 µM | RPMI-8226 14 µM | RXF 393 17.9 µM | SF-268 8.81 µM | SK-MEL-28 7.66 µM | SN12C 11.3 µM | SR 18.9 µM | SW-620 15.9 µM | TK-10 17.7 µM | U-251 7.41 µM | UO-31 14.2 µM

NCCCNOCCCN
inactive: COLO 205 > 100 µM | DU-145 > 100 µM | HCT-116 > 100 µM | HT-29 > 100 µM | K562 > 100 µM | M14 > 100 µM | OVCAR-3 > 100 µM | PC-3 > 100 µM | RPMI-8226 > 100 µM | RXF 393 > 100 µM | SF-268 > 100 µM | SK-MEL-28 > 100 µM | SN12C > 100 µM | SR 2.26 µM | SW-620 > 100 µM | TK-10 > 100 µM | U-251 43.7 µM | UO-31 > 100 µM

CSC1=C(C#N)C(=O)N(c2ccc(C)cc2)C(=S)C1C#N (stereo not given)
inactive: COLO 205 > 100 µM | HCT-116 > 100 µM | HT-29 > 100 µM | K562 > 100 µM | LOX IMVI > 100 µM | M14 > 100 µM | NCI-H226 > 100 µM | PC-3 > 100 µM | RXF 393 > 100 µM | SF-268 > 100 µM | SK-MEL-28 > 100 µM | SN12C > 100 µM | SW-620 > 100 µM | TK-10 > 100 µM | U-251 > 100 µM

Cc1c(NC(=O)CCCl)c(=O)oc2c(C)c3occc(=O)c3cc12
inactive: COLO 205 > 100 µM | DU-145 > 100 µM | HCT-116 92.7 µM | HT-29 > 100 µM | K562 66.4 µM | M14 50.8 µM | RPMI-8226 81.7 µM | RXF 393 33.5 µM | SF-268 > 100 µM | SK-MEL-28 53 µM | SR 80.4 µM | SW-620 87.7 µM | TK-10 49.2 µM | U-251 67.6 µM | UO-31 36.1 µM

Brc1ccc(C2=NCSC(c3ccc(Br)cc3)=N2)cc1
inactive: COLO 205 59.7 µM | HCT-116 16.6 µM | HT-29 27.4 µM | K562 31 µM | LOX IMVI 25.4 µM | M14 30.5 µM | NCI-H226 34.3 µM | PC-3 21.2 µM | RPMI-8226 16.1 µM | RXF 393 8.53 µM | SF-268 53.3 µM | SK-MEL-28 46.5 µM | SN12C 29.6 µM | SR 22.2 µM | SW-620 12.1 µM | TK-10 17.6 µM | U-251 16.7 µM | UO-31 15.4 µM

CNC(=O)c1nc[nH]c1/N=N/N(C)N
inactive: COLO 205 > 100 µM | DU-145 > 100 µM | HCT-116 > 100 µM | HT-29 > 100 µM | K562 > 100 µM | LOX IMVI 74.6 µM | M14 > 100 µM | NCI-H226 > 100 µM | OVCAR-3 > 100 µM | PC-3 > 100 µM | RPMI-8226 > 100 µM | RXF 393 > 100 µM | SF-268 > 100 µM | SK-MEL-28 > 100 µM | SN12C > 100 µM | SW-620 > 100 µM | TK-10 > 100 µM | U-251 > 100 µM | UO-31 > 100 µM

CC1(CCCO)CCCCCCCCCC(C)(CCCO)C1=O (stereo not given)
inactive: COLO 205 > 100 µM | DU-145 > 100 µM | HCT-116 94 µM | HT-29 > 100 µM | K562 > 100 µM | LOX IMVI > 100 µM | M14 > 100 µM | NCI-H226 > 100 µM | OVCAR-3 > 100 µM | PC-3 > 100 µM | RPMI-8226 > 100 µM | RXF 393 > 100 µM | SF-268 > 100 µM | SK-MEL-28 > 100 µM | SN12C > 100 µM | SW-620 > 100 µM | U-251 > 100 µM | UO-31 > 100 µM

NNC(=O)C1CCC(=O)N1S(=O)(=O)c1ccccc1 (stereo not given)
inactive: COLO 205 > 100 µM | HCT-116 > 100 µM | HT-29 > 100 µM | K562 > 100 µM | LOX IMVI > 100 µM | M14 > 100 µM | NCI-H226 > 100 µM | OVCAR-3 > 100 µM | RPMI-8226 > 100 µM | RXF 393 > 100 µM | SF-268 > 100 µM | SK-MEL-28 > 100 µM | SN12C > 100 µM | SR > 100 µM | SW-620 > 100 µM | TK-10 > 100 µM | U-251 > 100 µM | UO-31 > 100 µM

O=c1c(C(c2ccc(-c3ccccc3)cc2)c2c(O)oc3ccccc3c2=O)c(O)oc2ccccc12
inactive: COLO 205 34.6 µM | DU-145 59.8 µM | HCT-116 23.2 µM | HT-29 20.3 µM | K562 45.5 µM | LOX IMVI 19.1 µM | NCI-H226 23.2 µM | OVCAR-3 24.3 µM | PC-3 24.2 µM | RPMI-8226 25.9 µM | SF-268 21.8 µM | SK-MEL-28 16.3 µM | SN12C 16.7 µM | SW-620 16.4 µM | TK-10 51.9 µM | U-251 44.8 µM | UO-31 17.7 µM
